Experimental data as given in patent US20020045638A1, “Method of treating estrogen receptor positive carcinoma” (priority 2000, published 2002).
Like-named read-outs stand apart in the source and are kept apart here.

Test system: MCF-7 human breast cancer cells
Experiment: Inhibition of growth of MCF-7 breast cancer cells (MTT), with MacSynergy II synergy analysis;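 further: cells treated five or six days with single agents or combinations, growth read by MTT, synergy surface equals observed % inhibition minus Bliss additive prediction, values under 0% signal antagonism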
Conditions: for inhibition at 0.1 µM / inhibition at 0.2 µM / inhibition at 0.4 µM / inhibition at 0.005 µM / inhibition at 0.01 µM / inhibition at 0.05 µM: Homo sapiens, MCF7, read-out: Percent Inhibition, Table E

With `CO[C@H]1C[C@@H]2CC[C@@H](C)[C@@](O)(O2)C(=O)C(=O)N2CCCC[C@H]2C(=O)O[C@H]([C@H](C)C[C@@H]2CC[C@@H](OC(=O)C(C)(CO)CO)[C@H](OC)C2)CC(=O)[C@H](C)/C=C(\C)[C@@H](O)[C@@H](OC)C(=O)[C@H](C)C[C@H](C)/C=C/C=C/C=C/1C` [CCI-779, rapamycin 42-ester with 3-hydroxy-2-(hydroxymethyl)-2-methylpropionic acid] the inhibition at 0.1 µM (CCI-779 5 nM + CCI-779 100 nM) was 51%, the inhibition at 0.2 µM (CCI-779 5 nM + CCI-779 200 nM) was 58.1% and the inhibition at 0.4 µM (CCI-779 5 nM + CCI-779 400 nM) was 64.1%. The inhibition at 0.005 µM (CCI-779 10 nM + CCI-779 5 nM) was 18.8%, the inhibition at 0.01 µM (CCI-779 10 nM + CCI-779 10 nM) was 23.5% and the inhibition at 0.05 µM (CCI-779 10 nM + CCI-779 50 nM) was 51.2%. For the same compound, the inhibition at 0.1 µM (CCI-779 10 nM + CCI-779 100 nM) was 54.8%, the inhibition at 0.2 µM (CCI-779 10 nM + CCI-779 200 nM) was 62.4% and the inhibition at 0.4 µM (CCI-779 10 nM + CCI-779 400 nM) was 65.2%. For the same compound, the inhibition at 0.005 µM (CCI-779 50 nM + CCI-779 5 nM) was 48.3%, the inhibition at 0.01 µM (CCI-779 50 nM + CCI-779 10 nM) was 46.9% and the inhibition at 0.05 µM (CCI-779 50 nM + CCI-779 50 nM) was 50.3%. The inhibition at 0.1 µM (CCI-779 50 nM + CCI-779 100 nM) was 54.6%, the inhibition at 0.2 µM (CCI-779 50 nM + CCI-779 200 nM) was 57.5% and the inhibition at 0.4 µM (CCI-779 50 nM + CCI-779 400 nM) was 60.2%. It also gave an inhibition at 0.005 µM (CCI-779 100 nM + CCI-779 5 nM) of 54.2%, an inhibition at 0.01 µM (CCI-779 100 nM + CCI-779 10 nM) of 52.9% and an inhibition at 0.05 µM (CCI-779 100 nM + CCI-779 50 nM) of 51%. It also gave an inhibition at 0.1 µM (CCI-779 100 nM + CCI-779 100 nM) of 55%, an inhibition at 0.2 µM (CCI-779 100 nM + CCI-779 200 nM) of 62.5% and an inhibition at 0.4 µM (CCI-779 100 nM + CCI-779 400 nM) of 66.8%. The inhibition at 0.005 µM (CCI-779 200 nM + CCI-779 5 nM) was 51.4%, the inhibition at 0.01 µM (CCI-779 200 nM + CCI-779 10 nM) was 57.1% and the inhibition at 0.05 µM (CCI-779 200 nM + CCI-779 50 nM) was 57.2%. It also gave an inhibition at 0.1 µM (CCI-779 200 nM + CCI-779 100 nM) of 59%, an inhibition at 0.2 µM (CCI-779 200 nM + CCI-779 200 nM) of 65.5% and an inhibition at 0.4 µM (CCI-779 200 nM + CCI-779 400 nM) of 66.8%. It also gave an inhibition at 0.005 µM (CCI-779 400 nM + CCI-779 5 nM) of 61.1%, an inhibition at 0.01 µM (CCI-779 400 nM + CCI-779 10 nM) of 61.1% and an inhibition at 0.05 µM (CCI-779 400 nM + CCI-779 50 nM) of 60%. For the same compound, the inhibition at 0.1 µM (CCI-779 400 nM + CCI-779 100 nM) was 62%, the inhibition at 0.2 µM (CCI-779 400 nM + CCI-779 200 nM) was 66.3% and the inhibition at 0.4 µM (CCI-779 400 nM + CCI-779 400 nM) was 69.7%. For the same compound, the “concentrations at which synergy was more pronounced” value (MCF-7, ERA-923 in combination with CCI-779 (Table A)) was 300 to 400 nM, the “Percent Inhibition” value (Table A, CCI-779 5 nM, ERA-923 0 nM) was −13.25% and the “Percent Inhibition” value (Table A, CCI-779 10 nM, ERA-923 0 nM) was −1.54%. The “Percent Inhibition” value (Table A, CCI-779 50 nM, ERA-923 0 nM) was 26.68%, the “Percent Inhibition” value (Table A, CCI-779 100 nM, ERA-923 0 nM) was 37.93% and the “Percent Inhibition” value (Table A, CCI-779 200 nM, ERA-923 0 nM) was 34.99%. For the same compound, the “Percent Inhibition” value (Table A, CCI-779 400 nM, ERA-923 0 nM) was 39.43%, the “Percent Inhibition” value (Table E, CCI-779 5 nM + CCI-779 0 nM) was 0.59% and the “Percent Inhibition” value (Table E, CCI-779 10 nM + CCI-779 0 nM) was 4.91%. For the same compound, the “Percent Inhibition” value (Table E, CCI-779 50 nM + CCI-779 0 nM) was 36.55%, the “Percent Inhibition” value (Table E, CCI-779 100 nM + CCI-779 0 nM) was 42.35% and the “Percent Inhibition” value (Table E, CCI-779 200 nM + CCI-779 0 nM) was 45.87%. For the same compound, the “Percent Inhibition” value (Table E, CCI-779 400 nM + CCI-779 0 nM) was 55.78%.
